Laboratory results as given in patent publication US20160256421A1, “COMPOSITION CONTAINING EUGENOL AS ACTIVE INGREDIENT FOR PREVENTING OR TREATING ATOPIC DERMATITIS” (SEOUL NATIONAL UNIVERSITY R&DB FOUNDATION, priority 2013, published 2016).

What was measured:
[1] = test system: histamine-induced pruritus; experiment: Scratch test, histamine-induced pruritus, simultaneous intradermal injection of compound; type: in vivo, mice; details: 10 μM compound injected simultaneously with 500 μg/site histamine, 30 minutes, histamine only about 152, FIG. 11
Experimental: In order to confirm reactions to pruritus-inducing substances such as histamine or serotonin in the present invention, a behavior experiment was conducted. In order to induce scratching, histamine and serotonin which are known to induce itchy sensation in humans were used. Here, histamine or serotonin was diluted with sterilized saline solution. On the day before the experiment, experimental animals were anaesthetized by mixing zolitel and rompun at a ratio of 1:4 and injecting 1 mL/kg thereof, and hair on the nape areas of a 1.5 cm×1.5 cm square was removed using a clipper on the nape of experimental animals. On the day of the experiment, a box of 10 cm×20 cm×15 cm dimensions was produced and mice were stabilized for 30 minutes therein. Thereafter, 100 μL of solvents or the experimental substance was applied on the back of the neck of mice, and after 30 minutes, 50 μL of pruritus-inducing substances (500 μg/site of histamine or 10 μg/site of serotonin) was injected at the back of the neck of experimental animals via intradermal injection. Next, reactions of experimental animals were video-recorded for 30 minutes, and a scratch test was conducted by counting up and down of a hind paw of an experimental animal to the injected area in the back of the neck as one scratch. […]
As described in Experimental Example 4, in order to induce scratching, experimental animals in the control group were injected with 500 μg/site of histamine at the back of the neck via intradermal injection, and along with the histamine, the experimental group was simultaneously injected with 10 μM isoeugenol (mixture of cis and trans, 82 ng) and 10 μM methyleugenol (89 ng) as representative eugenol derivatives, as well as 10 μM eugenol (82 ng). Thereafter, the reactions of experimental animals were video-recorded for 30 minutes, and a scratch test was conducted by counting the action of going up and down of a hind paw of an experimental animal to the injected area in the back of the neck as one scratch.

[2] = test system: histamine-induced pruritus; experiment: Scratch test, histamine-induced pruritus, cream applied; type: in vivo, mice; details: histamine 500 μg intradermal
Source text: (§1) 7-week-old male C57/BL6 mice were used in the present experiment, and in order to produce atopic dermatitis models, 7-week-old male balb/c nude mice were purchased from Orient Bio (Korea) and used. The method described in the manuscript of Kuraishi et al., presented the original form of mouse models developed in the present invention (Kuraishi et al., 1995). The group consisting of male BL6/C57 mice weighing 20 g to 23 g was used in the experiment. The experiment proceeded after experimental animals were accustomed to the conventional environment of 23±2° C. and 55±15% humidity for 3 days, in which light was constrained from 8 pm to 8 am, and were given ad libitum access to food and water. In order to confirm reactions to pruritus-inducing substances such as histamine or serotonin in the present invention, a behavior experiment was conducted. In order to induce scratching, histamine and serotonin which are known to induce itchy sensation in humans were used. Here, histamine or serotonin was diluted with sterilized saline solution. […] Next, reactions of experimental animals were video-recorded for 30 minutes, and a scratch test was conducted by counting up and down of a hind paw of an experimental animal to the injected area in the back of the neck as one scratch. […]

[3] = target: TRPV1 (Homo sapiens, UniProt Q8NER1); details: high concentration; cited from earlier work
Chain of TRPV1 (Q8NER1 whole entry, species assumed): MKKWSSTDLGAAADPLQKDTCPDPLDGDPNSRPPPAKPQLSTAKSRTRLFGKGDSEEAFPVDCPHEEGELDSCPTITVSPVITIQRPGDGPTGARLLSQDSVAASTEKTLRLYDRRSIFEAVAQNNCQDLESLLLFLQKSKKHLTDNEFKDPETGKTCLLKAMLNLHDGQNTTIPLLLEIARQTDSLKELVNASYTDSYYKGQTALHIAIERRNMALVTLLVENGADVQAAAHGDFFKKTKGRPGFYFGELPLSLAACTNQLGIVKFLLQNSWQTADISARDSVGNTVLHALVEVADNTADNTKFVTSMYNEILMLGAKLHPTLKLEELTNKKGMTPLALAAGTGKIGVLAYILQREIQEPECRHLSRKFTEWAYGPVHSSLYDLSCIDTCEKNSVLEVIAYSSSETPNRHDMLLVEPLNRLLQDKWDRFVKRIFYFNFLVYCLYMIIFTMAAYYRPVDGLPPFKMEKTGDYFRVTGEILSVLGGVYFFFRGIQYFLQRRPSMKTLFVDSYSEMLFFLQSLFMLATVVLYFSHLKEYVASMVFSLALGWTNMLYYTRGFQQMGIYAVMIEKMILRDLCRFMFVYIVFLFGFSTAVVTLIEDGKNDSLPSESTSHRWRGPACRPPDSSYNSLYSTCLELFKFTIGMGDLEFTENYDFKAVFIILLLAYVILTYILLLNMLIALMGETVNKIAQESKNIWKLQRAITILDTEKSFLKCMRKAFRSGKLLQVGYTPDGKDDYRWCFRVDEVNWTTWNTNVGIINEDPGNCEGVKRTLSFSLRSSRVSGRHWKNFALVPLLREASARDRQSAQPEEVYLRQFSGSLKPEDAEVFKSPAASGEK

[4] = test system: atopic dermatitis animal models (oxalozone-induced); experiment: Visual inspection of dermal recovery in atopic dermatitis animal models; type: in vivo, balb/c nude mice; details: 200 μL of 3 wt % eugenol cream, same time of a day for a week, FIG. 2
Source text: 7-week-old male C57/BL6 mice were used in the present experiment, and in order to produce atopic dermatitis models, 7-week-old male balb/c nude mice were purchased from Orient Bio (Korea) and used. The method described in the manuscript of Kuraishi et al., presented the original form of mouse models developed in the present invention (Kuraishi et al., 1995). The group consisting of male BL6/C57 mice weighing 20 g to 23 g was used in the experiment. The experiment proceeded after experimental animals were accustomed to the conventional environment of 23±2° C. and 55±15% humidity for 3 days, in which light was constrained from 8 pm to 8 am, and were given ad libitum access to food and water. Atopic dermatitis animal models were produced with reference to Hatano et al. (2011), and it is known that TRPV1 is mediated in the developmental mechanism. Particularly, balb/c nude mice were used to produce the atopic dermatitis animal models. In the first two days, 50 μL of 5% oxalozone was treated to sensitize the back of the neck of experimental animals, and a week of recovery followed. In the next 4 weeks, 60 μL of 0.5% oxalozone was treated for a total of 12 times to complete atopic dermatitis animal models (FIG. 1). […]

[5] = test system: serotonin-induced pruritus; experiment: Scratch test, serotonin-induced pruritus, cream applied; type: in vivo, mice; details: serotonin 10 μg
Source text: as §1

[6] = test system: heat pain (capsaicin receptors); experiment: Hargreaves test, acute heat pain reactions; type: in vivo, mice; details: 3 wt % eugenol compared to the base cream
Experimental: In order to examine whether 3 wt % eugenol acts on capsaicin receptors and effects behavioral reactions to heat stimulation, Hargreaves test was conducted. With reference to Hargreaves et al. (1988), heat stimulation by light was delivered to a hind paw of a subject, and the corresponding avoidance reaction time was measured.

[7] = test system: mechanical pain; experiment: von-Frey test, acute mechanical pain reactions; type: in vivo, mice; details: 3 wt % eugenol
Experimental: However, effects of blocking pain by blocking Na ion channels are induced by blocking all the dermal sensory information and thus are non-specific phenomena. Therefore, von-Frey test was conducted to examine whether antipruritic effects are induced by reduced excitation via blocking voltage-dependent Na ion channels of sensory nerves by confirming whether eugenol at a pruritus-effective concentration blocks pain reactions. With reference to Chaplan et al. (1994), hind paws of experimental animals were stimulated with von-Frey filaments (0.02 g to 4 g), and 50% avoidance reactions were measured. Through this process, avoidance reactions to mechanical stimulations were measured and assessed as a reaction threshold.

[8] = cited from earlier work

SMILES: C=CCc1ccc(OC)c(OC)c1 [methyleugenol]
- number of scratching on average [1]: 99 times

SMILES: C=CCc1ccc(O)c(OC)c1 [eugenol, 4-allyl-2-methoxyphenol]
- reduction of pruritus reactions ([2]; 3 wt % eugenol cream, 30 minutes): at least 40%
- blocking effects on histamine-dependent pruritus ([2]; 10 wt % eugenol cream): increased blocking effects on histamine-dependent pruritus
- concentration at which TRPV1 is activated [3]: ≥ 1 mM
- number of scratching on average [1]: about 45 times
- dermal recovery from atopic dermatitis (visual inspection) [4]: recovered skin to the normal level
- antipruritic effects on serotonin-induced pruritus ([5]; 100 μL of 3 wt % eugenol): antipruritic effects were not observed
- antipruritic effects on serotonin-induced pruritus ([5]; 100 μL of 10 wt % eugenol): showed blocking of serotonin-induced pruritus
- avoidance reaction in response to heat pain (Hargreaves) [6]: significantly increased avoidance reaction
- mechanical pain, 50% avoidance reaction threshold (von-Frey) [7]: did not show a significant difference
- solubility in organic solvents [8]: high
- solubility in water [8]: low

SMILES: CC=Cc1ccc(O)c(OC)c1 (racemic) [isoeugenol, (E) or (Z)-2-methoxy-4-(prop-1-enyl)phenol]
- number of scratching on average [1]: about 80 times
